Test [1] concerns the target T1, human δ opioid receptors (hDOR) (Homo sapiens, UniProt P41143).
T1 construct: expressed in transfected cells; host or cells: HN9.10 neuroblastoma cell line, pCDNA3, neomycin-selected clones
Briefly: Radioligand competition binding, [3H]DPDPE, hDOR membranes. Conditions: for Ki(μ)/Ki(δ): binding, rMOR vs hDOR; for LogIC50, hDOR, [3H]DPDPE: membranes from transfected HN9.10 cells.

For test [2], the target named is T2, rat μ opioid receptors (rMOR) (Rattus norvegicus, UniProt P33535).
T2 construct: expressed in transfected cells; host or cells: HN9.10 neuroblastoma cell line, pCDNA3, neomycin-selected clones
Put plainly: Radioligand competition binding, [3H]DAMGO, rMOR membranes. Conditions: for LogIC50, rMOR, [3H]DAMGO: membranes from transfected HN9.10 cells.

Another test has as its target T3, rat NK1 (rNK1) receptor (Rattus norvegicus, UniProt P14600).
T3 construct: expressed in transfected cells; host or cells: CHO (rNK-1/CHO cell line from Dr. James Krause)
Put plainly: Radioligand competition binding, [3H]substance P, rNK1/CHO membranes. The following applies: for IC50: membranes from transfected CHO cells.

For test [3], the target named is T4, human NK1 receptor (hNK1) (Homo sapiens, UniProt P25103).
T4 construct: expressed in transfected cells
Briefly: Radioligand competition binding, [3H]-Substance P, hNK1.

The target in test [4] is T1, human δ opioid receptors (hDOR). Briefly: [35S]GTP-γ-S binding assay, hDOR. The format is biochemical.
The target in test [5] is T2, rat μ opioid receptors (rMOR). Briefly: biochemical. The test is classed as biochemical.
The target in a further test is T5, δ opioid receptors (MVD) (Mus musculus, UniProt P32300).
T5 construct: from tissue; host or cells: mouse (ICR) isolated vas deferens
Put plainly: Mouse isolated vas deferens (MVD) assay, opioid agonist.

A further test has as its system μ opioid receptors (GPI). Put plainly: Guinea pig isolated ileum (GPI) assay, opioid agonist.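 As to all read-outs here: inhibition of electrically evoked contractions (0.1 Hz, 0.4 msec, supramaximal voltage) in organ baths at 37 °C, contraction height 3 min after each cumulative dose versus the 1 min before dosing.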 Also on record: GPI/LMMP Opioid(m) Agonist, % inh.: unit of the concentration uncertain. The following applies: for GPI/LMMP Opioid(m) Agonist, % inh.: Table 28, at 1 (unit uncertain); for GPI (μ), effect at single concentration: at 1 μM.
The target of test [6] is T6, Substance P receptors (guinea pig NK1) (Cavia porcellus, UniProt P30547).
T6 construct: from tissue; host or cells: guinea pig (Hartley) ileum LMMP, 1 μM naloxone present
Briefly: Guinea pig isolated ileum (GPI) assay with substance P stimulation in presence of 1 μM naloxone. The following applies: for GPI/LMMP SP Agonist (IC50; nM): Table 39; for activation at 1 µM: read-out: Substance P GPI agonist (A50), contraction relative to initial muscle contraction with KCl.
Experimental: Testing stopped at 1 mM concentrations of the test compound.
Analysis of GPI and MVD assays. For opioid data analysis, percentage inhibition was calculated using the average tissue contraction height for 1 min preceding the addition of the agonist divided by the contraction height 3 min after exposure to the dose of agonist. […] IC50 and Emax estimates were determined by computerized nonlinear least-squares analysis (the pharmacological statistics package FlashCalc: Dr. Michael Ossipov, University of Arizona, Tucson, Ariz.). […] A50 values represent the mean of not less than 4 tissues. A50 and Emax estimates were determined by computerized nonlinear least-squares analysis (FlashCalc).

The mark [7] stands for this setting: Table 39, read-out: GTP binding hDOR Emax.
Setting [8] is: Table 39, read-out: GTP binding rMOR Emax.
Setting [9] is: Table 30, read-out: GPI/LMMP Opioid(m) Agonist (IC50; nM).
Setting [10] is: Table 39, read-out: GPI/LMMP opioid(mu) agonist (IC50; nM).
The mark [11] stands for this setting: GPI/LMMP Substance P Antagonist (Ke; nM), Table 30.
[12] abbreviates: IC50, rNK1, Substance P radioligand.
[13] abbreviates: LogIC50, rNK1, Substance P radioligand.
[14] abbreviates: read-out: Emax, hDOR, [35S]GTP-γ-S binding.
[15] abbreviates: read-out: GTP binding hDOR EC50.
[16] abbreviates: read-out: GTP binding hDOR Emax.
Setting [17] is: read-out: GTP binding hDOR Emax (%).
The mark [18] stands for this setting: Table 27, read-out: GTP binding rMOR EC50.
Where [19] appears, read: Table 27, read-out: GTP binding rMOR Emax (%).
The mark [20] stands for this setting: Table 39, read-out: GTP binding rMOR EC50.
Where [21] appears, read: net total bound/basal binding × 100, read-out: Emax, rMOR, [35S]GTP-γ-S binding.
Where [22] appears, read: read-out: EC50, rMOR, [35S]GTP-γ-S binding.
The mark [23] stands for this setting: Table 28, read-out: MVD Opioid (d) Agonist (IC50; nM).
Setting [24] is: Table 39, read-out: MVD opioid(delta) agonist (IC50; nM).
The mark [25] stands for this setting: electrically stimulated isolated tissue, read-out: MVD (δ), IC50.
The mark [26] stands for this setting: Substance P antagonist, GPI, Ke, in the presence of 1 μM naloxone.

Like-named read-outs stand apart in the source and are kept apart here. Peptide text beside a SMILES is read from it.

T2 sequence (P33535 whole entry): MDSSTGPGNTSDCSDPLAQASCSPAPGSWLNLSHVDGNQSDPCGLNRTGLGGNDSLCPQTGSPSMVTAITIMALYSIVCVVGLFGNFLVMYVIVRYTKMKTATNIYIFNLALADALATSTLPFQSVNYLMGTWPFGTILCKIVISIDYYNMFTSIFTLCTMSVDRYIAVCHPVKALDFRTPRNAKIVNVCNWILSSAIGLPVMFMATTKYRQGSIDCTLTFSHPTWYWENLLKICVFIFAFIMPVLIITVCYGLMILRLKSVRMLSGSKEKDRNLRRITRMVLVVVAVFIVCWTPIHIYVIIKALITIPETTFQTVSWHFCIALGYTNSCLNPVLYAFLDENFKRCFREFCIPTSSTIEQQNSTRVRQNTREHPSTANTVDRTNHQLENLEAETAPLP
T1 sequence (P41143 whole entry): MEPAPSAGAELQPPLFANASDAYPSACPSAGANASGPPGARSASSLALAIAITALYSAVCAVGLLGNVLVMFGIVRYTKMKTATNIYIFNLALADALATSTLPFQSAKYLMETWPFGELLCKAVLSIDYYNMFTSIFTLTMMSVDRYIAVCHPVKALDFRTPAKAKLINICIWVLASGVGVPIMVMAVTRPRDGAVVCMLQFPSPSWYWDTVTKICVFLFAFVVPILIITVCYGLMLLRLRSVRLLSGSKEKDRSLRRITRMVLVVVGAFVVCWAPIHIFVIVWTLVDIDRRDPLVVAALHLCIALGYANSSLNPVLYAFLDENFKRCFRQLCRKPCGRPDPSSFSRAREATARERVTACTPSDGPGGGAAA
T6 sequence (P30547 whole entry): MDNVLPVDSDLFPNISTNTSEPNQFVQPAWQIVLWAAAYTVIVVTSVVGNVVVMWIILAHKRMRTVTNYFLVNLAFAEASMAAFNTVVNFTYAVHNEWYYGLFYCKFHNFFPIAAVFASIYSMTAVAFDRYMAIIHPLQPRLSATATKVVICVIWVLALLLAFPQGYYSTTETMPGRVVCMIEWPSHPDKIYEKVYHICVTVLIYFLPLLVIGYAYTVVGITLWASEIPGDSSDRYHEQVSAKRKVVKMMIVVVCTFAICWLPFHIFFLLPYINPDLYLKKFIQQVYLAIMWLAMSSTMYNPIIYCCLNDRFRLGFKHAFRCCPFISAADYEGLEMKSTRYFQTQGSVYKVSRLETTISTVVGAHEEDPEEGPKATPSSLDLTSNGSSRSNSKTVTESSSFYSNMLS
T5 sequence (P32300 whole entry): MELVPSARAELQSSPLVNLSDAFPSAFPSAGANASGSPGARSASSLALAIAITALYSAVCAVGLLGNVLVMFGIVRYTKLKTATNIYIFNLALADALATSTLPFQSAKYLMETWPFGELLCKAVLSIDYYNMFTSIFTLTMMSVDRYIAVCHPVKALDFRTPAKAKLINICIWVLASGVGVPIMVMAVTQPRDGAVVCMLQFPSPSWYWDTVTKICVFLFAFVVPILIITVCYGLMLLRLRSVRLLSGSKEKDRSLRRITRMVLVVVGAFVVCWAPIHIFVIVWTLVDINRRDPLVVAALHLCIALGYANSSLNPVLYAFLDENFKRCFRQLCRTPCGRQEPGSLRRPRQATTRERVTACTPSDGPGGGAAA
T3 sequence (P14600 whole entry): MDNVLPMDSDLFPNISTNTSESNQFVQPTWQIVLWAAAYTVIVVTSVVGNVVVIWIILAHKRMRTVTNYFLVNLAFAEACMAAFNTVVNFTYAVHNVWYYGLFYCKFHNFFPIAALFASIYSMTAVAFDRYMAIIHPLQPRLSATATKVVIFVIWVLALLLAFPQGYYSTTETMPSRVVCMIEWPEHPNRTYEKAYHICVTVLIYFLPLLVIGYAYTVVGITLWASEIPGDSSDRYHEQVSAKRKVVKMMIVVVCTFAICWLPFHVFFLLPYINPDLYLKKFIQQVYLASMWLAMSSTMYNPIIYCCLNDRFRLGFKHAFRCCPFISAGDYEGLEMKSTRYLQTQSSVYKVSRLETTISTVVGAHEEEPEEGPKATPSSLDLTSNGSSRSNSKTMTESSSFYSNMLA
T4 sequence (P25103 whole entry): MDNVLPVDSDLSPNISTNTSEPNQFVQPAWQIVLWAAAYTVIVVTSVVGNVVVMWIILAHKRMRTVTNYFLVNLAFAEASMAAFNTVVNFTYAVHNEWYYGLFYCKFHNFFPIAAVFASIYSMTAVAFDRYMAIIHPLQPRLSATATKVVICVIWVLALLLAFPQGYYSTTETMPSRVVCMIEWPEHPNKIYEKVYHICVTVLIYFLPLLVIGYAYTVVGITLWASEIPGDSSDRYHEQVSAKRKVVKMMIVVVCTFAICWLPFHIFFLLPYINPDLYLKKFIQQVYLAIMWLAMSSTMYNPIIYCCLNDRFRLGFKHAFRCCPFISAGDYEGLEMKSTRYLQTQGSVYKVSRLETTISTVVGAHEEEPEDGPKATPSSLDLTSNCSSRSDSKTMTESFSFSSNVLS
Experimental for μ opioid receptors (GPI): Guinea Pig Isolated Ileum Assay. […] These tissues were tied to gold chains with suture silk and mounted between platinum wire electrodes in 20 mL organ baths at a tension of 1 g and bathed in oxygenated (95:5 O2:CO2) Kreb's bicarbonate buffer at 37° C. and stimulated electrically (0.1 Hz, 0.4 msec duration) at supramaximal voltage. Following an equilibration period, compounds were added cumulatively to the bath in volumes of 14-60 μL until maximum inhibition was reached. A baseline PL-017 was constructed to determine tissue integrity and allow calculation of antagonist activity before opioid analog testing began.
For opioid data analysis, percentage inhibition was calculated using the average tissue contraction height for 1 min preceding the addition of the agonist divided by the contraction height 3 min after exposure to the dose of agonist. […] IC50 and Emax estimates were determined by computerized nonlinear least-squares analysis (the pharmacological statistics package FlashCalc: Dr. Michael Ossipov, University of Arizona, Tucson, Ariz.). […] A50 values represent the mean of not less than 4 tissues. A50 and Emax estimates were determined by computerized nonlinear least-squares analysis (FlashCalc).

For `CSCC[C@H](NC(=O)[C@H](Cc1ccccc1)NC(=O)CNC(=O)[C@@H](C)NC(=O)[C@@H](N)Cc1c(C)cc(O)cc1C)C(=O)N1CCC[C@H]1C(=O)N[C@@H](CC(C)C)C(=O)N[C@@H](Cc1c[nH]c2ccccc12)C(=O)OCc1cc(C(F)(F)F)cc(C(F)(F)F)c1` [TY033], the Ki stood at 0.00022 µM in test [1]; 1.2 nM in [2]; 0.96 nM on rat NK1 (rNK1) receptor (Affinity rNK1 (Ki; nM), Table 29); 0.0012 µM in [3]. Moreover, the Emax came to 200% in [4] (setting [7]) and 59% in test [5] (setting [8]). For the same compound, the IC50 at δ opioid receptors (MVD) was found to be 1.27 nM; in the test with μ opioid receptors (GPI) (setting [9]), 100 nM; in the test with μ opioid receptors (GPI) (setting [10]), 100 nM. Further, the Kb in [6] (setting [11]) worked out at 24.5 nM.
With `CC(C)C[C@H](NC(=O)[C@@H]1CCCN1C(=O)[C@@H](Cc1ccccc1)NC(=O)[C@H](Cc1ccccc1)NC(=O)CNC(=O)[C@@H](C)NC(=O)[C@@H](N)Cc1ccc(O)cc1)C(=O)N[C@@H](Cc1c[nH]c2ccccc12)C(=O)OCc1cc(C(F)(F)F)cc(C(F)(F)F)c1` [TY007, H-Tyr-D-Ala-Gly-Phe-D-Phe-Pro-Leu-Trp-O-3,5-Bzl(CF3)2], the Ki in [1] stood at 0.11 µM; in [1] (read-out: Ki, hDOR, [3H]DPDPE) it was 0.093 µM; in test [2] it was 410 nM; in [2] (read-out: Ki, rMOR, [3H]DAMGO), 381 nM; in [3], 0.0013 µM. The “Ki(μ)/Ki(δ)” value in [1] is reported as 4.1; in [4], 20.5. Also, the “LogIC50, hDOR, [3H]DPDPE” value in test [1] is recorded as −6.70 ± 0.13. Further, in test [2], the “LogIC50, rMOR, [3H]DAMGO” value was −6.09 ± 0.15. In addition, the IC50 was 0.0667 µM on rat NK1 (rNK1) receptor (setting [12]); 0.0603 µM on rat NK1 (rNK1) receptor (setting [13]); 412 nM at δ opioid receptors (MVD) (setting [23]); 412 nM on δ opioid receptors (MVD) (setting [24]); 412 ± 106 nM on δ opioid receptors (MVD) (setting [25]). Besides, the “LogEC50, hDOR, [35S]GTP-γ-S binding” value in test [4] is recorded as −7.78 ± 0.36. Moreover, the Emax amounted to 26% in [4] (setting [14]); 22.9% in [4] (setting [16]); 22.9% in [4] (setting [17]); 23.6% in [5] (setting [19]); 23.6% in test [5] (setting [8]); 22% in test [5] (setting [21]). In addition, the 50% effective concentration (EC50) amounted to 0.0167 µM in test [4] (setting [15]), 0.345 µM in [5] (setting [18]), 0.345 µM in test [5] (setting [20]) and 0.345 µM in test [5] (setting [22]). In addition, in [5], the “LogEC50, rMOR, [35S]GTP-γ-S binding” value is listed as −6.46 ± 0.38. In the test on μ opioid receptors (GPI), the “GPI/LMMP Opioid(m) Agonist, % inh.” value was determined as 9% inh. at 1 mM. Besides, in the test with μ opioid receptors (GPI) (Table 39, concentration not given), the “GPI/LMMP opioid(mu) agonist, %” value was 9.20%. In the test on μ opioid receptors (GPI), the “GPI (μ), effect at single concentration” value is reported as 9% at 1 μM^b. For the same compound, the Kb in test [6] (setting [26]) is 69.6 ± 7.1 nM. Further, the “GPI/LMMP SP Agonist (IC50; nM)” value in test [6] (concentration not given) is given as “none”. In addition, the activation at 1 µM in [6] is 0%.
As for `CC(C)C[C@H](NC(=O)[C@@H]1CCCN1C(=O)[C@H](Cc1ccccc1)NC(=O)[C@H](Cc1ccccc1)NC(=O)CNC(=O)[C@@H](C)NC(=O)[C@@H](N)Cc1ccc(O)cc1)C(=O)N[C@@H](Cc1c[nH]c2ccccc12)C(=O)OCc1cc(C(F)(F)F)cc(C(F)(F)F)c1` [TY003, H-Tyr-D-Ala-Gly-Phe-Phe-Pro-Leu-Trp-O-3,5-Bzl(CF3)2], the Ki in test [1] was determined as 0.0146 µM; in [2] (Table 27, read-out: Affinity rMOR (Ki; nM)), 28.3 nM; in test [2] (Table 39, read-out: Affinity rMOR (Ki; nM)), 28.3 nM; in test [2] (read-out: Ki, rMOR, [3H]DAMGO) it was 28.3 nM. The “Ki(μ)/Ki(δ)” value is recorded as 1.9 in [1] and 2.8 in test [4]. Further, the “LogIC50, hDOR, [3H]DPDPE” value in test [1] was −7.50 ± 0.14. Besides, the “LogIC50, rMOR, [3H]DAMGO” value in test [2] is listed as −7.22 ± 0.10. For the same compound, the IC50 on rat NK1 (rNK1) receptor (setting [12]) is 0.0193 µM; on rat NK1 (rNK1) receptor (setting [13]) it was 0.0191 µM; on δ opioid receptors (MVD) (setting [23]), 905 nM; at δ opioid receptors (MVD) (setting [24]), 905 nM; at δ opioid receptors (MVD) (setting [25]) it was 905 ± 186 nM. Moreover, in test [4], the “LogEC50, hDOR, [35S]GTP-γ-S binding” value is reported as −7.68 ± 0.20. Besides, the EC50 in test [4] (read-out: EC50, hDOR, [35S]GTP-γ-S binding) turned out to be 0.0208 µM; in [4] (setting [15]) it was 0.0208 µM; in [5] (setting [18]), 0.0587 µM; in [5] (setting [20]), 0.0587 µM; in test [5] (setting [22]) it was 0.0587 µM. For the same compound, the maximal effect (Emax) in test [4] (setting [14]) came out at 39%; in [4] (setting [16]) it was 39%; in test [4] (setting [17]), 39%; in test [5] (setting [19]) it was 36.3%; in [5] (setting [8]), 36.3%; in test [5] (setting [21]) it was 41%. Moreover, the “LogEC50, rMOR, [35S]GTP-γ-S binding” value in test [5] is reported as −7.23 ± 0.18. Moreover, in the test with μ opioid receptors (GPI), the “GPI/LMMP Opioid(m) Agonist, % inh.” value was 7% inh. at 1 mM. Besides, in the test on μ opioid receptors (GPI) (Table 39), the “GPI/LMMP opioid(mu) Antagonist” value is recorded as “none”. Also, the “GPI/LMMP opioid(mu) agonist, % at 1 uM” value in the test on μ opioid receptors (GPI) (Table 39, at 1 uM) was determined as 6.6% @ 1 uM. Further, in the test on μ opioid receptors (GPI), the “GPI (μ), effect at single concentration” value was determined as 7% at 1 μM^b. For the same compound, the antagonist dissociation constant (Kb) in test [6] (setting [26]) worked out at 14.4 ± 4.9 nM. Moreover, the “GPI/LMMP SP Agonist (IC50; nM)” value in test [6] (concentration not given) is on record as “none”. In addition, the activation at 1 µM in [6] stood at 0%.
Regarding `CSCC[C@H](NC(=O)[C@H](Cc1ccccc1)NC(=O)CNC(=O)[C@@H](C)NC(=O)[C@@H](N)Cc1c(C)cc(O)cc1C)C(=O)N1CCC[C@H]1C(=O)N[C@@H](CC(C)C)C(=O)N[C@@H](Cc1c[nH]c2ccccc12)C(=O)NCc1ccccc1` [TY034], the inhibition constant Ki in test [1] came out at 0.0001 µM; in test [2], 0.14 nM; on rat NK1 (rNK1) receptor (Affinity rNK1 (Ki; nM), Table 39), 317 nM. Further, the Emax in [4] (setting [7]) is 21%; in test [5] (setting [8]) it was 58%. The IC50 on δ opioid receptors (MVD) worked out at 6.85 nM; in the test on μ opioid receptors (GPI) (setting [9]), 11.4 nM; in the test on μ opioid receptors (GPI) (setting [10]), 11.4 nM. The Kb in test [6] (setting [11]) came to 36.9 nM. The “GPI/LMMP Substance P Agonist (IC50; nM)” value in test [6] (Table 30) is “None”. In addition, the “GPI/LMMP SP Agonist (IC50; nM)” value in [6] (at 100 nM) was “none”.
For `CC(C)C[C@H](NC(=O)[C@H](Cc1ccccc1)NC(=O)CNC(=O)[C@@H](C)NC(=O)[C@@H](N)Cc1ccc(O)cc1)C(=O)N[C@@H](Cc1c[nH]c2ccccc12)C(=O)OCc1cc(C(F)(F)F)cc(C(F)(F)F)c1` [NP37] (HELM PEPTIDE1{Y.[dA].G.F.L.W.[FC(F)(F)c1cc(CO[*:1])cc(C(F)(F)F)c1]}$$$$V2.0; N-terminus assumed), the Ki in test [1] came out at 0.0029 µM; in [2], 23.3 nM; at rat NK1 (rNK1) receptor (Affinity (Ki, nM) rNK1, Table 32) it was 0.29 nM. For the same compound, the EC50 in test [4] (Table 32, read-out: GTP hDOR EC50) came out at 0.0048 µM; in test [5] (Table 32, read-out: GTP rMOR EC50) it was 0.014 µM. The Emax in test [4] (Table 32, read-out: GTP hDOR EMax) amounted to 60%; in test [5] (Table 32, read-out: GTP rMOR EMax), 54%. Also, the IC50 at δ opioid receptors (MVD) is 25.7 nM.

Values taken from patent publication US8026218B2, “Bifunctional analgesic compounds for opioid receptor agonists and neurokinin-1 receptor antagonists” (The University of Arizona, priority 2006, dated 2011).
